One compound from BindingDB's records for doi:10.1016/j.bmcl.2015.09.044 (Keio University, 2015) can be followed below.

Residues, ends and D or L forms follow the SMILES beside them.

A short description of the assay: Inhibition of M-CSF/sRANKL-induced mouse BMDM differentiation into osteoclast after 72 hrs by TRAP staining-based microscopic analysis.

`C#CCCC/C=C(\C)C(=O)N(C)[C@H](C(=O)N(C)[C@H](C(=O)N(C)[C@H](C(=O)N(C)[C@H](C(=O)N1CCC[C@H]1C(=O)N1CCC[C@H]1C(=O)CC)C(C)C)C(C)C)[C@@H](C)CC)[C@@H](C)CC` (HELM PEPTIDE1{[C#CCCC/C=C(\C)C(=O)[*:2]].[meI].[meI].[meV].[meV].P.[CCC(=O)[C@@H]1CCCN1[*:1]]}$$$$V2.0): it took 780 nM to reach half-maximal inhibition (IC50).
